Data taken from patent US20030039957A1, “Functional protein expression for rapid cell-free phenotyping” (priority 2000, published 2003).
Values after ≈ are worked out from the molar mass of the structure shown. Like-named read-outs stand apart in the source and are kept apart here.

Key:
mutant DNA Gyrase A = test: Binding assays (affinity), mutant gyrase A; design: species or system Streptococcus pneumoniae
Experimental: (§1) The functional activity of the purified mutant DNA gyrase A protein obtained from the fluoroquinolone resistant Streptococcus pneumoniae was compared to wild-type DNA gyrase A protein in supercoiling inhibition assays and DNA cleavage assays as described in Pan et al., and Barnard et al., supra. A concentration range of antibiotics was added to contact both the wild-type and mutant proteins. In addition, the affinities for each antibiotic and both the wild-type and mutant proteins were derived according to the method described in Roychoudhury, et al., supra.

wild-type DNA Gyrase A = biological target: T1, wild-type DNA Gyrase A (Streptococcus pneumoniae serotype 4, UniProt P0A4L9+P72524); test: Binding assays (affinity), wild-type gyrase A
T1 construct: A 100 kDa protein, corresponding to the DNA gyrase A protein, was produced from this eukaryotic expression system; made in house; host or cells: cell-free coupled reticulocyte lysate (TNT T7 Quick for PCR DNA, Promega)
T1 sequence (P0A4L9 whole entry): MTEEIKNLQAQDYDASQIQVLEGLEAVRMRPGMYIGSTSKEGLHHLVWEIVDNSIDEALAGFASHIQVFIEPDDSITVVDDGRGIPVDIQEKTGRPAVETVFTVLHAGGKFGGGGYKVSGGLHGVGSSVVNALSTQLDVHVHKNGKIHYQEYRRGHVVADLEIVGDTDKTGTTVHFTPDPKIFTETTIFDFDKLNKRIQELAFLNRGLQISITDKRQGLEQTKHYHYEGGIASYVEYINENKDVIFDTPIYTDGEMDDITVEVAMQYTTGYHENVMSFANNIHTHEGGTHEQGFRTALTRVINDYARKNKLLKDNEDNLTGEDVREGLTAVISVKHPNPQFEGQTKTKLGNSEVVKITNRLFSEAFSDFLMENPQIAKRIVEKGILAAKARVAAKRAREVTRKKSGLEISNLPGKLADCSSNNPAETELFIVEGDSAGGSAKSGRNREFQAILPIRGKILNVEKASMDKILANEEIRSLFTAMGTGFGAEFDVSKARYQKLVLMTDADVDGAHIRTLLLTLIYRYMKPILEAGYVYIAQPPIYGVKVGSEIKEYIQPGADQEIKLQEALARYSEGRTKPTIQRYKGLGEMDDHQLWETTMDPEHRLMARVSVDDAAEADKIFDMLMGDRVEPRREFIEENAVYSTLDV
T1 sequence (P72524 whole entry): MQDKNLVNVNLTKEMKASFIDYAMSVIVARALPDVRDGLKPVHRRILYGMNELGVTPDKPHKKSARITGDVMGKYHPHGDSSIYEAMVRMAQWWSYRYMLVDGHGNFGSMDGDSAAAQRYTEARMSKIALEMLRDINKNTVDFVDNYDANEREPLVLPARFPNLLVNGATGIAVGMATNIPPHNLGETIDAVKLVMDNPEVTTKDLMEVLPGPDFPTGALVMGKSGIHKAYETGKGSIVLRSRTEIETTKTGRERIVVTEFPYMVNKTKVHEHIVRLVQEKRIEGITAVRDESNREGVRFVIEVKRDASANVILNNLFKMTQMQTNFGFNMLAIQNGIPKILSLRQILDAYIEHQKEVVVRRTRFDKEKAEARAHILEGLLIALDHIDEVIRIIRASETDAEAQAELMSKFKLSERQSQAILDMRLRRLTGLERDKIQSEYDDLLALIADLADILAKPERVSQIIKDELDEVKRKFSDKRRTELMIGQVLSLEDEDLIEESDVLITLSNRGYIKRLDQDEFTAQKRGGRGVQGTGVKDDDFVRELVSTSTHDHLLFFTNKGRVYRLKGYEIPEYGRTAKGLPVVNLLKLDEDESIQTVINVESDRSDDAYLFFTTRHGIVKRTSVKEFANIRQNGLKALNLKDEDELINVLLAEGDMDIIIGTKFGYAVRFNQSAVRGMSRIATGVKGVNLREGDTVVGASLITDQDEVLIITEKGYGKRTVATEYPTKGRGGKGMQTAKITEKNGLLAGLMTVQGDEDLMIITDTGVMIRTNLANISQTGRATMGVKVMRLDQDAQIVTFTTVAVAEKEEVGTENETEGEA
Experimental: as §1

[1] = tested on: DNA gyrase versus topoisomerase IV; test: Ratio of affinity parameter, DNA gyrase to control protein topoisomerase IV; assay type: binding, Streptococcus pneumoniae
[2] = tested on: mutant DNA gyrase A protein; test: Supercoiling inhibition and DNA cleavage assays; assay type: biochemical, Streptococcus pneumoniae; details: for MIC relative to maximal serum drug concentrations reported for standard dosage regimens: enzyme inhibition or DNA cleavage assays
Experimental: as §1

[3] = tested on: HIV reverse transcriptase, patient-derived protein; assay type: biochemical, HIV-1
Text: The PCR-generated DNA templates were expressed into HIV reverse transcriptase and protease using a coupled reticulocyte lysate system, TNT T7 Quick for PCR DNA (Promega, Madison, Wis.). Sizes of the proteins, as well as a confirmation of their integrity, was confirmed by Western Blot.

HIV = details: cited from earlier work
[4] = biological target: T2, wild-type lanosterol 14 alpha-demethylase protein (Candida albicans, UniProt P10613); test: Prevention of CO-complex formation with reduced cytochrome P450, wild-type; assay type: binding, C. albicans; design: A 60 kDa protein, corresponding to the lanosterol 14 alpha-demethylase protein, was produced from this eukaryotic expression system; made in house; details: wild-type proteins
T2 sequence (P10613 whole entry): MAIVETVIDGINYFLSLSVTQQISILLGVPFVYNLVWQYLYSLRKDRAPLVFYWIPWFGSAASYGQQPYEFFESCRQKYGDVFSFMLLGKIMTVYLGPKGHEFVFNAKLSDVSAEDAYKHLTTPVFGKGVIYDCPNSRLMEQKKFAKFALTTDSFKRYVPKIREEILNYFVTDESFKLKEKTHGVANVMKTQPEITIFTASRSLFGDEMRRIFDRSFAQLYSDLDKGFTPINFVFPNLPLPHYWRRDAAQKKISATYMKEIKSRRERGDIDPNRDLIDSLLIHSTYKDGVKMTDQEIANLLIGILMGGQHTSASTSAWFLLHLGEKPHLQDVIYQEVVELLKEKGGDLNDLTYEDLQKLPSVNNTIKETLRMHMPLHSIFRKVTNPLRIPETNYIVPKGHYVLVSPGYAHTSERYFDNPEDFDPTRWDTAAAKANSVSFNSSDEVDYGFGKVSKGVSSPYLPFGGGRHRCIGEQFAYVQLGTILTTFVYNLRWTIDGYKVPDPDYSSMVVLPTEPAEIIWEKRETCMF
Experimental: (§2) Microsomes were isolated from C. albicans as described in Marichal, P., et al., Microbiology (1999), 145, 2701-2713, incorporated herein by reference. Prevention of CO-complex formation in the reduced microsomal cytochrome P450 preparation provides an assay that can be used to test the affinity of the protein for an azole. The P-450 content and the effects of azoles on the interaction of CO with the reduced haem iron of P-450 were measured as described in Vanden Bossche, H., et al., Drug Dev Res, 8:287-298 (1986), incorporated herein by reference. The assay employed 0.1 nmol cytochrome P450 and 100 pM to 100 μM ranges of the anti-fungal compounds itraconazole and fluconazole.

[5] = tested on: mutant lanosterol 14 alpha-demethylase proteins; test: Prevention of CO-complex formation with reduced cytochrome P450, mutant; assay type: binding, C. albicans; details: mutant versus wild-type
Experimental: as §2

[6] = biological target: T3, mutant lanosterol 14 alpha-demethylase proteins (Candida albicans, UniProt P10613); test: as above; assay type: binding, C. albicans; details: mutant proteins
T3 construct: IC50; other: mutant proteins; other: at 100 nM; A 60 kDa protein, corresponding to the lanosterol 14 alpha-demethylase protein, was produced from this eukaryotic expression system
T3 sequence (P10613 whole entry, looked up, stated change not applied): as the sequence (P10613 whole entry) above
Experimental: as §2

S. cerevisiae AD1-8u(−) = details: Nakamura 2001; cited from earlier work
[7] = tested on: strain AD 1002 overexpressing C. albicans Cdr1p; details: strain AD 1002 overexpressing Cdr1p, Nakamura 2001; cited from earlier work
[8] = biological target: T2, wild-type lanosterol 14 alpha-demethylase protein; design: A 60 kDa protein, corresponding to the lanosterol 14 alpha-demethylase protein, was produced from this eukaryotic expression system; made in house; host or cells: cell-free coupled reticulocyte lysate (TNT T7 Quick for PCR DNA, Promega); details: typically reported; cited from earlier work
[9] = tested on: patient derived HCV NS5B RNA-dependent RNA polymerase; assay type: biochemical, hepatitis C virus
[10] = biological target: wild-type HCV NS5B RNA-dependent RNA polymerase (Hepatitis C virus genotype 2b, UniProt Q9DHD6); assay type: biochemical
Chain of wild-type HCV NS5B RNA-dependent RNA polymerase (Q9DHD6 2443-3033 limits assumed): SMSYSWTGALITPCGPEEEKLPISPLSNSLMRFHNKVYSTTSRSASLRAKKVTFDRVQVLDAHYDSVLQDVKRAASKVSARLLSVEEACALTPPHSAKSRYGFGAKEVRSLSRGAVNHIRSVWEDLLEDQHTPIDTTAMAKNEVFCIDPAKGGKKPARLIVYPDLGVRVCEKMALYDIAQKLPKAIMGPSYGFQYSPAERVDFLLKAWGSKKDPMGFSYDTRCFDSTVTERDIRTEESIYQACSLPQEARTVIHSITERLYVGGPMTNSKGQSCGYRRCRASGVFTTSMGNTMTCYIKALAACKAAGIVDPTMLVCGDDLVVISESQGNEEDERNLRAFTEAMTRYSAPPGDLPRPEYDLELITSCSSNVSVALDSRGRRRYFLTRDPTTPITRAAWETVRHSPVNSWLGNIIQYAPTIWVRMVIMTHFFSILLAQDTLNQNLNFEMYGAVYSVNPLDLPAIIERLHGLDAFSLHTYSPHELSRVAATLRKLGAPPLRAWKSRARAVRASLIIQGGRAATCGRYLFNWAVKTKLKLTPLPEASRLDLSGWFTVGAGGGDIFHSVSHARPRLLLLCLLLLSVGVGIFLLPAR

[11] = biological target: wild-type HBV polymerase (HBV-WT) (Hepatitis B virus genotype A2 subtype adw2, UniProt P03159); test: DNA polymerase assay (non-radioactive, sandwich ELISA) with cell-free expressed HBV polymerase; details: read-out: IC50, inhibition of DNA polymerase activity, FIG. 3, approximate
Chain of wild-type HBV polymerase (HBV-WT) (P03159 whole entry): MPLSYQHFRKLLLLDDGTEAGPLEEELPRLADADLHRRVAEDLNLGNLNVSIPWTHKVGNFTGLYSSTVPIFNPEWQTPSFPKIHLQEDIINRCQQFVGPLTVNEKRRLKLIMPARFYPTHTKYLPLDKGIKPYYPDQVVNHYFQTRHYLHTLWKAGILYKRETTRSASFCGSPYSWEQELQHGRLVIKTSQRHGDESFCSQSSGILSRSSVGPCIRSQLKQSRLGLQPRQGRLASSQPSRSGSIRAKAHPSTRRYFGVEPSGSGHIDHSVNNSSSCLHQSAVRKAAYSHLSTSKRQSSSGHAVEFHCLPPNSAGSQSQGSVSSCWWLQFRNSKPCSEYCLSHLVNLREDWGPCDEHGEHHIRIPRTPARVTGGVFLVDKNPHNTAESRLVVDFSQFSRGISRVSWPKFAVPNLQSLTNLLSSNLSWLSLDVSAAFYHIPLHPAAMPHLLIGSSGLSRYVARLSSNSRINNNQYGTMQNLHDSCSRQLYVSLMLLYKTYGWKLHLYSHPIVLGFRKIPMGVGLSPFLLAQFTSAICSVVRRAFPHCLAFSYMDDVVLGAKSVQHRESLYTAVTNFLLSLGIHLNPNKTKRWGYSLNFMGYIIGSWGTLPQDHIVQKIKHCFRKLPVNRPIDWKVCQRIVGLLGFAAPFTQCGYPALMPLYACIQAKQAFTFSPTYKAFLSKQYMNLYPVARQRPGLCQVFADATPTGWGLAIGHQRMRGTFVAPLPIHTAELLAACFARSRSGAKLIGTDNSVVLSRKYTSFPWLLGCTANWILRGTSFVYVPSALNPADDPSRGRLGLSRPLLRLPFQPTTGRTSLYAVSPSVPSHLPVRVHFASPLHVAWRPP
Text: A sensitive DNA polymerase assay (Roche Molecular Biochemicals, Indianapolis, Ind.) was used to determine the DNA polymerase activity of the expressed HBV polymerase proteins. […] The DNA polymerase assay as shown provides a non-radioactive assay, which measures the ability of the enzyme to digoxigenin and biotin labeled nucleotides into freshly synthesized DNA. The detection of synthesized DNA as a parameter for DNA polymerase activity follows a sandwich ELISA protocol—biotin labeled nucleic acid binds the surface of a microtiter plate coated with streptavidin. An anti-digoxigenin antibody conjugated to peroxidase is incubated with the nucleic acid. Upon addition of the peroxidase substrate, a color change occurs corresponding to the peroxidase activity, which is detected by a microplate ELISA reader. The absorbance samples is directly correlated to the level of DNA polymerase activity in the sample. […] In FIG. 1, HBV-WT refers to the wild-type HBV polymerase. […] PC and NC refer respectively to positive and negative controls. Briefly, the positive control includes Klenow enzyme in polymerase buffer. The negative control includes reticulcyte lysate without the DNA amplicon.
Inhibition of DNA polymerase activity (%) was plotted against compound concentration. […]

## NC1CCN(c2c(F)cc3c(=O)c(C(=O)O)cn(C4CC4)c3c2Cl)C1 (centres unmarked) [clinafloxacin]
Mutant DNA Gyrase A
  affinity compared with ciprofloxacin, trovafloxacin, gatifloxacin, gemifloxacin and moxifloxacin: higher affinities
wild-type DNA Gyrase A
  affinity compared with ciprofloxacin, trovafloxacin, gatifloxacin, gemifloxacin and moxifloxacin: higher affinities
[1]
  ratio of the calculated affinity parameter for DNA gyrase to that for topoisomerase IV, compared with ciprofloxacin and trovafloxacin: lower
[2]
  MIC relative to maximal serum drug concentrations reported for standard dosage regimens: below the maximal serum concentrations

## CO/N=C1\CN(c2nc3c(cc2F)c(=O)c(C(=O)O)cn3C2CC2)CC1CN (centres unmarked) [gemifloxacin]
[2]
  MIC relative to maximal serum drug concentrations reported for standard dosage regimens: below the maximal serum concentrations

## Cc1c(F)c(N2CCNC(C)C2)cc2c1c(=O)c(C(=O)O)cn2C1CC1 (centres unmarked) [grepafloxacin]
[2]
  MIC relative to maximal serum drug concentrations reported for standard dosage regimens: above the maximal serum drug concentrations

## Cc1cn([C@H]2C[C@H](N=[N+]=[N-])[C@@H](CO)O2)c(=O)[nH]c1=O [AZT, zidovudine]
[3]
  difference in the IC50 value, patient sample versus wild-type: five-fold
HIV
  reduction of virus replication: about 90%

## OC(Cn1cncn1)(Cn1cncn1)c1ccc(F)cc1F [fluconazole]
[4]
  IC50: 0.04 µM
[5]
  range of IC50 values, wild-type to mutant: more than 100 fold
[6]
  IC50: ~4.88 µM
S. cerevisiae AD1-8u(−)
  MIC(80), MIC at which 80% of cells were inhibited: 0.625 mg/L
[7]
  MIC(80): 30 mg/L (≈ 98 µM)

## CCC(C)n1ncn(-c2ccc(N3CCN(c4ccc(OCC5COC(Cn6cncn6)(c6ccc(Cl)cc6Cl)O5)cc4)CC3)cc2)c1=O (centres unmarked) [itraconazole]
[8]
  IC50: 0.01 to 0.05 µM
[6]
  IC50: 0.03 to 0.075 µM

## CC(=O)N1CCN(c2ccc(OCC3COC(Cn4ccnc4)(c4ccc(Cl)cc4Cl)O3)cc2)CC1 (centres unmarked) [ketoconazole]
[7]
  MIC(80): 0.5 mg/L (≈ 0.941 µM)

## C[C@@H]1CN(c2c(F)c(N)c3c(=O)c(C(=O)O)cn(C4CC4)c3c2F)C[C@H](C)N1 [sparfloxacin]
[2]
  fold increase in inhibitory concentration of mutant versus wild-type enzyme: about 4 fold

## NC(=O)c1ncn([C@@H]2O[C@H](COP(=O)(O)OP(=O)(O)OP(=O)(O)O)[C@@H](O)[C@H]2O)n1 [ribavirin triphosphates]
[9]
  effect on RdRp activity: no inhibitory effect
[10]; wild-type NS5B protein
  effect on RdRp activity: no inhibitory effect

## Nc1ccn([C@@H]2CS[C@H](COP(=O)(O)OP(=O)(O)OP(=O)(O)O)O2)c(=O)n1 [lamivudine-TP]
[11]
  IC50: ~0.05 µM

## CN[C@@H](C)[C@@H]1CCN(c2c(F)cc3c(=O)c(C(=O)O)cn(C4CC4)c3c2OC)C1 [premafloxacin]
[2]
  fold increase in inhibitory concentration of mutant versus wild-type enzyme: 32 fold

## N[C@@H]1[C@H]2CN(c3nc4c(cc3F)c(=O)c(C(=O)O)cn4-c3ccc(F)cc3F)C[C@@H]12 [trovafloxacin]
[2]
  MIC relative to maximal serum drug concentrations reported for standard dosage regimens: above the maximal serum drug concentrations

## CN1C(=O)[C@]23CC4=CC=C[C@H](O)[C@H]4N2C(=O)[C@@]1(CO)SS3 [gliotoxin]
[9]
  effect on RdRp activity: inhibited HCV NS5B RdRp of both wild-type and patient derived proteins in a dose-dependent manner
[10]
  effect on RdRp activity: inhibited HCV NS5B RdRp of both wild-type and patient derived proteins in a dose-dependent manner

## COc1c(N2CCNC(C)C2)c(F)cc2c(=O)c(C(=O)O)cn(C3CC3)c12 (centres unmarked) [gatifloxacin]
[1]
  ratio of the calculated affinity parameter for DNA gyrase to that for topoisomerase IV, compared with ciprofloxacin and trovafloxacin: lower
[2]
  MIC relative to maximal serum drug concentrations reported for standard dosage regimens: above the maximal serum drug concentrations
